Data: patent US10253027B2, “Aryl lactam kinase inhibitors” (Bristol-Myers Squibb Company, priority 2013, dated 2019)

Legend:
[1] = molecular target: T1, GST-Xa-hAAK1 (Homo sapiens, UniProt Q2M2I8); assay: AAK1 Kinase Assay; format: biochemical; details: IC50 (nM), ATP 22 μM; 3 hours at room temperature; Caliper LabChip 3000
T1 construct: made in house
Description: The assays were performed in U-bottom 384-well plates. […] The reactions were initiated by the combination of bacterially expressed, GST-Xa-hAAK1 with substrates and test compounds. The reactions were incubated at room temperature for 3 hours and terminated by adding 60 μl of 35 mM EDTA buffer to each sample. The reactions were analyzed on the Caliper LabChip 3000 (Caliper, Hopkinton, Mass.) by electrophoretic separation of the fluorescent substrate and phosphorylated product. […] Compounds were dissolved at 10 mM in dimethylsulfoxide (DMSO) and evaluated at eleven concentrations. IC50 values were derived by non-linear regression analysis.

[2] = system: mice; assay: formalin paw test (paw flinching, pain response); format: in vivo, mouse
Description: AAK1 homozygous (−/−) and their wild-type (+/+) littermates were tested using the formalin paw test in order to assess their acute and tonic nociceptive responses. For these tests, Automatic Nociception Analyzers (purchased from the Ozaki lab at University of California, San Diego) were used. A metal band was placed around the left hind paw of each mouse 30 minutes prior to testing. After the 30-minute acclimation period, 20 μl of 5% formalin is subcutaneously injected in the dorsal surface of the left hind paw. Mice were individually housed in cylindrical chambers for 45 minutes. Fresh 5% formalin solution was prepared by diluting formaldehyde (Formalde-fresh 20%, Fisher Scientific, Fair Lawn, N.J.) with distilled water. Investigatory compounds were administered 30 minutes prior to formalin injection.
A computer recorded flinches per minute, total flinches for phase I (acute phase=first 8 minutes), and total flinches for phase II (tonic phase=time between minutes 20-40) through an electromagnetic field. See Yaksh T L, Ozaki G, McCumber D, Rathbun M, Svensson C, Malkmus S, Yaksh M C. An automated flinch detecting system for use in the formalin nociceptive bioassay. J Appl Physiol., 2001; 90:2386-402. Phase 1 and phase 2 data were obtained using homozygous (−/−) mice females (n=16), wild-type females (n=15), homozygous (−/−) mice males (n=9), and wild-type males (n=18).
The same test was used to confirm that the administration of an AAK1 inhibitor can also affect pain response.
A compound of the disclosure was tested in this assay at different doses. Gabapentin and pregabalin were used as positive controls. Results are shown below in Table 3, wherein the effect of gabapentin at 200 mg/kg is considered a 100% response, the % response for the other compounds is relative to the 200 mg/kg dose of gabapentin, “sc” means subcutaneous administration; “po” means oral administration.

[3] = 60 mg/kg sc, % response relative to gabapentin 200 mg/kg (=100%), compound given 30 minutes prior to formalin
[4] = 50 mg/kg sc, % response relative to gabapentin 200 mg/kg (=100%), compound given 30 minutes prior to formalin

T1 sequence (Q2M2I8 whole entry): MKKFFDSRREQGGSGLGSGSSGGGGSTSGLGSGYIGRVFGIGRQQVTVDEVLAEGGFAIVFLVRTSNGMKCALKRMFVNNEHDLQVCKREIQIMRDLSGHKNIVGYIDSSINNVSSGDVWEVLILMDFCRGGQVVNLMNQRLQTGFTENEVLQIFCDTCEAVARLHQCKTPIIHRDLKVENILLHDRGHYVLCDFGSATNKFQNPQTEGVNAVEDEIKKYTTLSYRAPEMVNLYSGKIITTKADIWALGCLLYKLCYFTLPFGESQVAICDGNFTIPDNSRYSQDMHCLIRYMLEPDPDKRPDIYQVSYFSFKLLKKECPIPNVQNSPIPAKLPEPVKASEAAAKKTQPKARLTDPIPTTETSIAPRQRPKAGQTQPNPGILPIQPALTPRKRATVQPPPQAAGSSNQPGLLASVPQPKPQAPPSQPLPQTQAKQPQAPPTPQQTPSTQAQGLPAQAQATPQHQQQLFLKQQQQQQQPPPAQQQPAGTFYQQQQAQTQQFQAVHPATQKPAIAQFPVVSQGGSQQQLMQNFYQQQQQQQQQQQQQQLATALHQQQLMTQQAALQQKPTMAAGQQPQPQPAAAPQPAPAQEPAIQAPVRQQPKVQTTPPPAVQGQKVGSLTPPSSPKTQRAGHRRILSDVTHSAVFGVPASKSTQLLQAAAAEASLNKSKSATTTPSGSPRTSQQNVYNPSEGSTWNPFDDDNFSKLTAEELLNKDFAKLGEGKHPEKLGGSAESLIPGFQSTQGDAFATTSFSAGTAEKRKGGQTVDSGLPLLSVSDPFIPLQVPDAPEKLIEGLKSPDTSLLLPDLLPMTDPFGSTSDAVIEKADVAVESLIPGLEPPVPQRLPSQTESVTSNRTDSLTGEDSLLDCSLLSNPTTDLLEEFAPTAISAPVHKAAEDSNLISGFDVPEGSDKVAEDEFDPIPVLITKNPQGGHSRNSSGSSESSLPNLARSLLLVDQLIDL

Structure (SMILES) | IC50 [1] | other results
COc1cc(NC(=O)[C@H](N)CC(C)C)ccc1-c1cnco1 [Example 1, (R)-2-Amino-N-(3-methoxy-4-(oxazol-5-yl)phenyl)-4-methylpentanamide] | 36 nM | Response [2, 3]: 90%
CC(C)C[C@@H](N)C(=O)Nc1ccc(-c2cnco2)c(OC(F)F)c1 [Example 18, (R)-2-Amino-N-(3-(difluoromethoxy)-4-(oxazol-5-yl)phenyl)-4-methylpentanamide] | 35 nM | Response [2, 3]: 100%
COc1cc(NC(=O)[C@H](N)[C@H](C)O)ccc1-c1cnco1 [Example 77, (2R,3S)-2-Amino-3-hydroxy-N-(3-methoxy-4-(oxazol-5-yl)phenyl)butanamide] | 810 nM | 
COc1cc(NC(=O)[C@H]2C[C@H](OC)CN2)ccc1-c1cnco1 [Example 78, (2R,4S)-4-Methoxy-N-(3-methoxy-4-(oxazol-5-yl)phenyl)pyrrolidine-2-carboxamide] | 2900 nM | 
COc1cc(NC(=O)C[C@@H](N)C(C)C)ccc1-c1cnco1 [Example 79, (R)-3-Amino-N-(3-methoxy-4-(oxazol-5-yl)phenyl)-4-methylpentanamide] | 130 nM | 
COc1cc(NC(=O)C2CCCCN2C(=O)C(C)C)ccc1-c1cnco1 (centres unmarked) [Example 80, 1-Isobutyryl-N-(3-methoxy-4-(oxazol-5-yl)phenyl)piperidine-2-carboxamide] | 630 nM | 
COc1cc(NC(=O)[C@@H]2CCCN2C(C)C)ccc1-c1cnco1 [Example 81, (S)-1-Isopropyl-N-(3-methoxy-4-(oxazol-5-yl)phenyl)pyrrolidine-2-carboxamide] | 510 nM | 
COc1cc(NC(=O)[C@@H]2CCCN2C(=O)C(C)C)ccc1-c1cnco1 [Example 82, (S)-1-Isobutyryl-N-(3-methoxy-4-(oxazol-5-yl)phenyl)pyrrolidine-2-carboxamide] | 1800 nM | 
COc1cc(NC(=O)C2CCCCN2C(C)C)ccc1-c1cnco1 (centres unmarked) [Example 83, 1-Isopropyl-N-(3-methoxy-4-(oxazol-5-yl)phenyl)piperidine-2-carboxamide] | 360 nM | 
COc1cc(NC(=O)C(N)CC(C)(C)F)ccc1-c1cnco1 (centres unmarked) [Example 84, 2-Amino-4-fluoro-N-(3-methoxy-4-(oxazol-5-yl)phenyl)-4-methylpentanamide] | 240 nM | 
COc1cc(NC(=O)C2NCCCC2C(C)C)ccc1-c1cnco1 (centres unmarked) [Example 85, 3-Isopropyl-N-(3-methoxy-4-(oxazol-5-yl)phenyl)piperidine-2-carboxamide] | 8 nM | 
COc1cc(NC(=O)C2CNCCN2C(C)C)ccc1-c1cnco1 (centres unmarked) [Example 86, 1-Isopropyl-N-(3-methoxy-4-(oxazol-5-yl)phenyl)piperazine-2-carboxamide] | 52 nM | 
COc1cc(NC(=O)[C@@H]2NCCC[C@@H]2C(C)C)ccc1-c1cnco1 [Example 88, (2R,3R)-3-Isopropyl-N-(3-methoxy-4-(oxazol-5-yl)phenyl)piperidine-2-carboxamide] | 8 nM | 
COc1cc(NC(=O)[C@H]2C[C@H](F)CN2)ccc1-c1cnco1 [Example 89, (2R,4S)-4-Fluoro-N-(3-methoxy-4-(oxazol-5-yl)phenyl)pyrrolidine-2-carboxamide] | 2000 nM | 
COc1cc(NC(=O)[C@H]2C[C@@H](F)CN2)ccc1-c1cnco1 [Example 90, (2R,4R)-4-Fluoro-N-(3-methoxy-4-(oxazol-5-yl)phenyl)pyrrolidine-2-carboxamide] | 1100 nM | 
COc1cc(NC(=O)[C@H](N)C(C)C)c(F)cc1-c1cnco1 [Example 96, (R)-2-Amino-N-(2-fluoro-5-methoxy-4-(oxazol-5-yl)phenyl)-3-methylbutanamide] | 780 nM | 
COc1cc(NC(=O)[C@H](N)CC(C)C)c(F)cc1-c1cnco1 [Example 98, (R)-2-Amino-N-(2-fluoro-5-methoxy-4-(oxazol-5-yl)phenyl)-4-methylpentanamide] | 1120 nM | 
COc1cc(NC(=O)[C@@H](N)CC(C)C)c(F)cc1-c1cnco1 [Example 99, (S)-2-Amino-N-(2-fluoro-5-methoxy-4-(oxazol-5-yl)phenyl)-4-methylpentanamide] | 780 nM | 
COc1cc(NC(=O)[C@H](N)C2CCCC2)c(F)cc1-c1cnco1 [Example 100, (R)-2-Amino-2-cyclopentyl-N-(2-fluoro-5-methoxy-4-(oxazol-5-yl)phenyl)acetamide] | 530 nM | 

Structure (SMILES) | IC50 [1] | other results
COc1cc(NC(=O)[C@H](N)CC(C)C)c(C#N)cc1-c1cnco1 [Example 101, (R)-2-Amino-N-(2-cyano-5-methoxy-4-(oxazol-5-yl)phenyl)-4-methylpentanamide] | 25 nM | 
COc1cc(NC(=O)[C@H](N)CC(C)C)c(-c2nn[nH]n2)cc1-c1cnco1 [Example 102, (R)-2-Amino-N-(5-methoxy-4-(oxazol-5-yl)-2-(2H-tetrazol-5-yl)phenyl)-4-methylpentanamide] | 6 nM | 
COc1cc(NC(=O)[C@H](N)CC(C)C)c(-c2nncs2)cc1-c1cnco1 [Example 103] | 360 nM | 
COc1cc(NC(=O)[C@H](N)CC(C)C)c(-c2cnco2)cc1-c1cnco1 [Example 104, (R)-2-Amino-N-(5-methoxy-2,4-bis(oxazol-5-yl)phenyl)-4-methylpentanamide] | 760 nM | 
CC(C)C[C@@H](N)C(=O)Nc1cc(F)c(-c2cnco2)cc1F [Example 105, (R)-2-Amino-N-(2,5-difluoro-4-(oxazol-5-yl)phenyl)-4-methylpentanamide] | 620 nM | 
CC(C)C[C@@H](N)C(=O)Nc1ccc(-c2cnco2)c(OC(F)(F)F)c1 [Example 106, (R)-2-Amino-4-methyl-N-(4-(oxazol-5-yl)-3-(trifluoromethoxy)phenyl)pentanamide] | 160 nM | 
COc1cc(-c2cnco2)c(F)cc1NC(=O)[C@H](N)CC(C)C [Example 107, (R)-2-Amino-N-(5-fluoro-2-methoxy-4-(oxazol-5-yl)phenyl)-4-methylpentanamide] | 84 nM | 
CC(C)C[C@@H](N)C(=O)Nc1ccc(-c2cnco2)c(C#N)c1 [Example 108, (R)-2-Amino-N-(3-cyano-4-(oxazol-5-yl)phenyl)-4-methylpentanamide] | 47 nM | 
COc1cc(NC(=O)[C@H](N)CC(C)C)ccc1-c1cnc[nH]1 [Example 109, (R)—N-(4-(1H-Imidazol-5-yl)-3-methoxyphenyl)-2-amino-4-methylpentanamide] | 790 nM | 
CC(C)C[C@@H](N)C(=O)Nc1ccc(-c2ccncc2)cc1C(F)(F)F [Example 111, (R)-2-Amino-4-methyl-N-(4-(pyridin-4-yl)-2-(trifluoromethyl)phenyl)pentanamide] | 300 nM | 
CC(C)C[C@@H](N)C(=O)Nc1ccc(-c2ccncc2)cc1-c1cn[nH]c1 [Example 112, (R)—N-(2-(1H-pyrazol-4-yl)-4-(pyridin-4-yl)phenyl)-2-amino-4-methylpentanamide] | 1340 nM | 
CC(C)C[C@@H](N)C(=O)Nc1ccc(-c2ccncc2)cc1-c1ccsc1 [Example 113, (R)-2-Amino-4-methyl-N-(4-(pyridin-4-yl)-2-(thiophen-3-yl)phenyl)pentanamide] | 500 nM | 
CC(C)C[C@@H](N)C(=O)Nc1ccc(-c2ccncc2)cc1C#N [Example 114, (R)-2-Amino-N-(2-cyano-4-(pyridin-4-yl)phenyl)-4-methylpentanamide] | 75 nM | 
CC(C)C[C@@H](N)C(=O)Nc1ccc(-c2ccncc2)cc1-c1nn[nH]n1 [Example 115, (R)-2-Amino-4-methyl-N-(4-(pyridin-4-yl)-2-(2H-tetrazol-5-yl)phenyl)pentanamide] | 28 nM | 
CC(C)C[C@@H](N)C(=O)Nc1ccc(-c2ccncc2)cc1 [Example 116, (R)-2-Amino-4-methyl-N-(4-(pyridin-4-yl)phenyl)pentanamide] | 25 nM | 
COc1cc(NC(=O)[C@H](N)CC(C)C)ccc1-c1ccncn1 [Example 117, (R)-2-Amino-N-(3-methoxy-4-(pyrimidin-4-yl)phenyl)-4-methylpentanamide] | 460 nM | 
CC(=O)Nc1cc(-c2ccc(NC(=O)[C@H](N)CC(C)C)cc2)ccn1 [Example 118, (R)—N-(4-(2-Acetamidopyridin-4-yl)phenyl)-2-amino-4-methylpentanamide] | 6 nM | 
NCC1(CC(=O)O)CCCCC1 [Gabapentin] |  | Response [2, 4]: 60%; Response ([2]; 200 mg/kg sc, gabapentin at 200 mg/kg is considered a 100% response): 100%
CC(C)C[C@H](CN)CC(=O)O [Pregabalin, pregabalin] |  | Response [2, 4]: 90%
